Measurements: patent US12421242B2, “Substituted tetrahydropyrrolo-pyridinone compounds and their use in treating medical conditions” (Karuna Therapeutics, Inc., priority 2022, dated 2025)

Columns and labels:
rM4 receptors = target: T1, rM4 receptors (Rattus norvegicus, UniProt P08485); test: Rat M4 PAM pERK assay; format: cell-based; conditions: PAM mode
T1 construct: expressed in transfected cells; host or cells: CHO cells
T1 sequence (P08485 1-478): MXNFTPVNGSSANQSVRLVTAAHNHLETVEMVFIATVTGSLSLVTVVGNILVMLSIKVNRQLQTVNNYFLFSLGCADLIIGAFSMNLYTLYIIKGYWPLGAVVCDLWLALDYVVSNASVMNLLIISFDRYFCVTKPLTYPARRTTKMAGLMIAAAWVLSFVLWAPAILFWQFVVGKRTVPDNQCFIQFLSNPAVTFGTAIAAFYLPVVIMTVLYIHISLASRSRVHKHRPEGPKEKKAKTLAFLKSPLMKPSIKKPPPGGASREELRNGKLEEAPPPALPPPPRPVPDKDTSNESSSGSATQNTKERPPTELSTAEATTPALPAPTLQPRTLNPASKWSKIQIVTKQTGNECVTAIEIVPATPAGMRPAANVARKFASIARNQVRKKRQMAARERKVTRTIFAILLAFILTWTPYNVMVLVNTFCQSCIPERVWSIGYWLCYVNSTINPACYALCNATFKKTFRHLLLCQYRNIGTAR
Protocol: (§1) Chinese hamster ovary (CHO) cells expressing either hM4 or rM4 receptors were frozen in assay ready vials (5×10^6 cells/vial) after bulking-up in culture. The day before an assay, vial(s) were thawed and cells seeded in 384 well white proxiplates at 1000/well for hM4 cells and at 2000/well for rM4 cells, in 10 μL of growth media (Hams/F12 with glutamax and 10% FCS) and incubated overnight at 37° C./5% CO2.
(§2) On the following morning, the growth media was removed by ‘flicking out’ over a bin, patting the inverted plate onto tissue, and then replacing with 10 μL of wash media (Hams/F12 with glutamax and 8 mM HEPES, NB: serum free). Then, the wash media was removed in the same way and replaced with 8 μL/well of the serum free media. Plates were then re-incubated for a further 4 hours at 37° C./5% CO2.
(§3) Compounds for testing were solubilized to 10 mM in DMSO and compound addition plates, consisting of ten-point concentration response curves (CRC) in duplicate points (10 μM top concentration, […]), were prepared by acoustic dispensing and the compound management group.
(§4) After the 4-hour incubation in serum free media, a 4 μL aliquot of the 3× compound solution containing an EC20 of acetylcholine (10 nM final concentration) was added to the cell plate using a 384 well plate to plate transfer. Then, the plate lid was replaced, and the cells incubated for 5 mins at 37° C./5% CO2. Following this final incubation, all cellular processes were stopped by the addition of 4 μL/well of lysis and blocking buffer and plates were incubated for 30 minutes at RT on an orbital shaker (gentle setting). Then, a final addition of 4 μL/well of antibody detection mix, containing both the Europium-Cryptate (donor) and d2 (acceptor) tagged detection components, was added followed by a further 2-hour incubation at RT, and then the plate was read using a TR-FRET (time resolved fluorescence resonance energy transfer) based protocol.

hM4 receptors = target: T2, hM4 receptors (Homo sapiens, UniProt P08173); test: Human M4 PAM pERK assay; format: cell-based; conditions: PAM mode
T2 construct: expressed in transfected cells; host or cells: CHO cells
T2 sequence (P08173 1-479): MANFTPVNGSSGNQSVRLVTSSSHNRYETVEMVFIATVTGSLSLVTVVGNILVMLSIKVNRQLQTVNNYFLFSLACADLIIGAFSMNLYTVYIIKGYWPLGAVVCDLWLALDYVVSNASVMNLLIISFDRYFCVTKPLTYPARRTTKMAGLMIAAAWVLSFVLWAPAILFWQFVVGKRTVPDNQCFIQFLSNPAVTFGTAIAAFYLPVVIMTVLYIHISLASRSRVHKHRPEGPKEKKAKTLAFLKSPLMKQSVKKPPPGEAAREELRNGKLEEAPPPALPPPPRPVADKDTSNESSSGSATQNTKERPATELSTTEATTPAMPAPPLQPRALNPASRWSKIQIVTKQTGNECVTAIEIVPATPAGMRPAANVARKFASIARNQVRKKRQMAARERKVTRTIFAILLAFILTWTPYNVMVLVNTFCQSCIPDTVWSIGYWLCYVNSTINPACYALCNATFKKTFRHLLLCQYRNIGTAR
Protocol: as §1, §2, §3, §4

| EC50 (rM4 receptors) | EC50 (hM4 receptors) | Compound |
| --- | --- | --- |
| > 2000 nM | 500 to 2000 nM | Cc1c2c(n(C)c(=O)c1Cl)CN(C(=O)c1cnn(CC3CC3)c1)C2 [Compound I-27] |
| 100 to 500 nM | > 2000 nM | Cc1c2c(n(C)c(=O)c1C)CN(C(=O)c1ccc3nc(C4CC4)sc3c1)C2 [Compound I-111, 6-(2-Cyclopropylbenzo[d]thiazole-6-carbonyl)-1,3,4-trimethyl-1,5,6,7-tetrahydro-2H-pyrrolo[3,4-b]pyridin-2-one] |
| > 2000 nM | 100 to 500 nM | COCc1ncc(C(=O)N2Cc3c(C)c(Cl)c(=O)n(C)c3C2)s1 [Compound I-38] |
| > 2000 nM | 100 to 500 nM | Cc1c2c(n(C)c(=O)c1Cl)CN(C(=O)c1cnn(CC3CCCC3)c1)C2 [Compound I-55] |
| 500 to 2000 nM | < 100 nM | Cc1c2c(n(C)c(=O)c1Cl)CN(C(=O)c1ccc3cncn3c1)C2 [Compound I-47] |
| 100 to 500 nM | 100 to 500 nM | Cc1c2c(n(CC3CC3)c(=O)c1Cl)CN(C(=O)c1ccc3nc(C4CCC4)sc3c1)C2 [Compound I-70] |
| > 2000 nM | 500 to 2000 nM | Cc1c2c(n(C)c(=O)c1Cl)CN(C(=O)c1ccc(C(C)(C)C)s1)C2 [Compound I-7] |
| > 2000 nM | 100 to 500 nM | COc1c2c(n(C)c(=O)c1C)CN(C(=O)c1cnc(CC3CC3)s1)C2 [Compound I-86] |
| > 2000 nM | < 100 nM | Cc1c2c(n(C)c(=O)c1Cl)CN(C(=O)c1cnn(C)c1)C2 [Compound I-2] |
| > 2000 nM | 100 to 500 nM | Cc1c2c(n(C)c(=O)c1Cl)CN(C(=O)c1cnc(C3CCC3)s1)C2 [Compound I-35] |
| 500 to 2000 nM | 100 to 500 nM | Cc1c2c(n(C)c(=O)c1Cl)CN(C(=O)c1ccc3nonc3c1)C2 [Compound I-43] |
| 100 to 500 nM | 100 to 500 nM | Cc1c2c(n(C)c(=O)c1Cl)CN(C(=O)c1ccc3c(c1)COC3)C2 [Compound I-50] |

More lines, now with the values behind:

| Compound | EC50 (rM4 receptors) | EC50 (hM4 receptors) |
| --- | --- | --- |
| Cc1c2c(n(C)c(=O)c1Cl)CN(C(=O)c1cnc(CC(C)C)s1)C2 [Compound I-34] | 500 to 2000 nM | 100 to 500 nM |
| Cc1c2c(n(C)c(=O)c1Cl)CN(C(=O)c1cnn(C(F)F)c1)[C@@H]2C [Compound I-77] | 100 to 500 nM | < 100 nM |
| Cc1c2c(n(C)c(=O)c1Cl)CN(C(=O)c1cnn(CC3CCOC3)c1)C2 (stereo not drawn) [Compound I-56] | > 2000 nM | > 2000 nM |
| Cc1c2c(n(C)c(=O)c1Cl)CN(C(=O)c1cnn(CC(C)C)c1)C2 [Compound I-5] | > 2000 nM | 500 to 2000 nM |
| Cc1c2c(n(C)c(=O)c1Cl)CN(C(=O)c1cnn(CC3COC3)c1)C2 [Compound I-54] | > 2000 nM | 100 to 500 nM |
| Cc1c2c(n(C)c(=O)c1Cl)CN(C(=O)c1cnn(CC3(C)COC3)c1)C2 [Compound I-53, 3-Chloro-1,4-dimethyl-6-(1-((3-methyloxetan-3-yl)methyl)-1H-pyrazole-4-carbonyl)-1,5,6,7-tetrahydro-2H-pyrrolo[3,4-b]pyridin-2-one] | > 2000 nM | > 2000 nM |
| Cc1c2c(n(C)c(=O)c1Cl)CN(C(=O)c1cn(C)cn1)C2 [Compound I-4] | > 2000 nM | 500 to 2000 nM |
| Cc1c2c(n(C)c(=O)c1Cl)CN(C(=O)c1cnc(CC(F)(F)F)s1)C2 [Compound I-39] | > 2000 nM | 500 to 2000 nM |
| COc1c2c(n(C)c(=O)c1C)CN(C(=O)c1cnn(CC(F)(F)F)c1)C2 [Compound I-85, 4-Methoxy-1,3-dimethyl-6-(1-(2,2,2-trifluoroethyl)-1H-pyrazole-4-carbonyl)-1,5,6,7-tetrahydro-2H-pyrrolo[3,4-b]pyridin-2-one] | > 2000 nM | 500 to 2000 nM |
| Cc1c2c(n(C)c(=O)c1Cl)CN(C(=O)c1cnn(Cc3ccc(C(F)(F)F)nc3)c1)C2 [Compound I-57] | > 2000 nM | > 2000 nM |
| Cc1c2c(n(C)c(=O)c1Cl)CN(C(=O)c1cnn(Cc3ccccc3)c1)C2 [Compound I-23] | 500 to 2000 nM | 100 to 500 nM |
| Cc1c2c(n(C)c(=O)c1Cl)CN(C(=O)c1cnc(CC3CC3(F)F)s1)C2 (stereo not drawn) [Compound I-65] | 500 to 2000 nM | < 100 nM |
| Cc1cc(=O)n(C)c2c1C(C)N(C(=O)c1cnn(C(F)(F)F)c1)C2 (stereo not drawn) [Compound I-93] | > 2000 nM | < 100 nM |
| Cc1c2c(n(CC3CC3)c(=O)c1Cl)CN(C(=O)c1cnc(CC3CC3)s1)C2 [Compound I-69, 3-Chloro-1-(cyclopropylmethyl)-6-(2-(cyclopropylmethyl)thiazole-5-carbonyl)-4-methyl-1,5,6,7-tetrahydro-2H-pyrrolo[3,4-b]pyridin-2-one] | > 2000 nM | 100 to 500 nM |
| Cc1c2c(n(C)c(=O)c1C(F)(F)F)CN(C(=O)c1cnn(C)c1)C2 [Compound I-110, 1,4-Dimethyl-6-(1-methyl-1H-pyrazole-4-carbonyl)-3-(trifluoromethyl)-1,5,6,7-tetrahydro-2H-pyrrolo[3,4-b]pyridin-2-one] | > 2000 nM | 100 to 500 nM |
| Cc1c2c(n(C)c(=O)c1F)CN(C(=O)c1cnn(C(F)(F)F)c1)[C@@H]2C [Compound I-114, (R)-3-Fluoro-1,4,5-trimethyl-6-(1-(trifluoromethyl)-1H-pyrazole-4-carbonyl)-1,5,6,7-tetrahydro-2H-pyrrolo[3,4-b]pyridin-2-one] | 100 to 500 nM | < 100 nM |
| Cc1cc(=O)n(C)c2c1CN(C(=O)c1cnn(C)c1)C2C (single isomer, unassigned) [Compound I-107, 1,4,7-Trimethyl-6-(1-methyl-1H-pyrazole-4-carbonyl)-1,5,6,7-tetrahydro-2H-pyrrolo[3,4-b]pyridin-2-one] | > 2000 nM | > 2000 nM |
| Cc1c2c(n(C)c(=O)c1Cl)CN(C(=O)c1cn(C(F)(F)F)cn1)C2 [Compound I-15] | > 2000 nM | 100 to 500 nM |
| Cc1c2c(n(C)c(=O)c1Cl)CN(C(=O)c1cnn(Cc3ccncc3)c1)C2 [Compound I-60] | > 2000 nM | 100 to 500 nM |
| Cc1cc(=O)n(C)c2c1C(C)N(C(=O)c1ccc3nc(C(F)(F)F)sc3c1)C2 (single isomer, unassigned) [Compound I-101] | > 2000 nM | 100 to 500 nM |
| Cc1c2c(n(C)c(=O)c1Cl)CN(C(=O)c1cnn(CC(F)(F)F)c1)C2 [Compound I-61] | > 2000 nM | 500 to 2000 nM |
| CCOc1c2c(n(C)c(=O)c1C)CN(C(=O)c1cnn(C(F)(F)F)c1)C2 [Compound I-88, 4-Ethoxy-1,3-dimethyl-6-(1-(trifluoromethyl)-1H-pyrazole-4-carbonyl)-1,5,6,7-tetrahydro-2H-pyrrolo[3,4-b]pyridin-2-one] | > 2000 nM | < 100 nM |
| Cc1c2c(n(C)c(=O)c1Cl)CN(C(=O)c1cn3c(n1)COCC3)C2 [Compound I-25] | > 2000 nM | 500 to 2000 nM |
| Cc1c2c(n(C)c(=O)c1Cl)CN(C(=O)c1cn3c(n1)CCC3)C2 [Compound I-33] | > 2000 nM | 100 to 500 nM |
| Cc1c2c(n(C)c(=O)c1Cl)CN(C(=O)c1cnn3c1CCC3)C2 [Compound I-37] | > 2000 nM | > 2000 nM |
| Cc1c2c(n(C)c(=O)c1Cl)CN(C(=O)c1ncc3ccccn13)C2 [Compound I-31] | > 2000 nM | > 2000 nM |
| Cc1c2c(n(C)c(=O)c1Cl)CN(C(=O)c1cc(C(F)(F)F)n(C)c1)C2 [Compound I-68, 3-Chloro-1,4-dimethyl-6-(1-methyl-5-(trifluoromethyl)-1H-pyrrole-3-carbonyl)-1,5,6,7-tetrahydro-2H-pyrrolo[3,4-b]pyridin-2-one] | 100 to 500 nM | < 100 nM |
